Experimental data reported in ChEMBL document CHEMBL3507680, “University of Dundee, Gates Library screen for HepG2 cell viability”.

Experiment: Human HepG2 cell viability assay in 384 well format
Format: toxicity, cell-based
Set-up: dose 125 nL, time 70.5 hour; cytotoxicity at 70.5 h: concentration not given beside the values
Conditions: HepG2 cells, read-out: Inhibition

| SMILES | cytotoxicity at 70.5 h [%] |
| --- | --- |
| Cc1csc(CN2CCC[C@]3(C[C@H](OCC4CC4)CO3)C2)n1 | 1.27 |
| Cc1nc(CN2C(=O)C[C@@H]3[C@@H]2CCN3S(=O)(=O)C2CC2)cs1 | 19.1 |
| Cc1nc(CN2C[C@@H]3CN(C(=O)c4ccoc4C)C[C@@H]3C2)cs1 | 28.2 |
| O=C1CCCN1Cc1ncn2c1CN(C(=O)NC1CCCCC1)CCC2 | 27.2 |
| COCCO[C@@H]1CCN(C(=O)c2ccnnc2)[C@H]1Cc1cnn(C)c1 | -116 |
| COCCN1C[C@@H]2CN(c3ncc(F)cn3)C[C@@H]2C1=O | -47.2 |
| COCCO[C@H]1CCN(C(=O)c2ccoc2C)[C@H]1Cc1cnn(C)c1 | -114 |
| COCCC(=O)N1CCC2(CCCN2Cc2cccc(Cl)c2)C1 (stereo unspecified) | -53.8 |
| COCCO[C@@H]1CCN(C(=O)c2occc2C)[C@H]1Cc1cnn(C)c1 | -90.5 |
| COc1nn(C)c2c1CCCN(C(=O)c1cccs1)C2 | -23.5 |
| O=C(C1CCCC1)N1CCO[C@H]2[C@H](OCC3CCOCC3)CC[C@@H]21 | -5.12 |
| COCC1c2c(cnn2C)CCN1Cc1ccsc1 (stereo unspecified) | -22.9 |
| Cn1cc(-c2cnc(N3CCCC3)nc2)cc1C(=O)N1CCOCC1 | -27.4 |
| O=C(C1CCOCC1)N1CCO[C@H]2[C@@H](OCC3CC3)CC[C@@H]21 | -6.56 |
| Cn1nc(C(=O)NCc2ccccc2C(F)(F)F)c2c1CCS(=O)(=O)C2 | -5.12 |
| COc1ccc(CNC(=O)c2nn(C)c3c2CS(=O)(=O)CC3)cc1 | -7.69 |
| CCC(C)NC(=O)c1nn(C)c(NC(=O)c2ccccc2OC)c1F (stereo unspecified) | -10.8 |
| CCC1=NC(SCC(=O)c2ccc(OC)cc2)c2cc(CC)sc2N1 (stereo unspecified) | 12.2 |
| CCNS(=O)(=O)c1ccc2c(c1)c(=O)n(CC)c(=O)n2CC | 2 |

| SMILES | cytotoxicity at 70.5 h [%] |
| --- | --- |
| Cc1cc2c(cc1NC(N)=O)OCO2 | -4.79 |
| Cc1c(S(=O)(=O)N2CCOCC2)cc2c(C)cc(=O)n3c2c1CCC3 | 0.511 |
| CN(C)S(=O)(=O)Nc1ccc(Oc2ccc3c(c2)OCO3)cc1 | -5.35 |
| COc1ccc(C2=Nn3c(CN)nnc3-c3ccccc3C2)cc1 | -18.7 |
| O=C(NCc1cccs1)c1[nH]nc2c1CS(=O)(=O)CC2 | -0.606 |
| CCn1nccc1CNc1[nH]cnc2nncc1-2 | -20.2 |
| CCn1nccc1CN(C)c1[nH]cnc2nc(C)nc1-2 | -5.53 |
| CCn1ncc(Nc2[nH]cnc3nc(C)nc2-3)c1C | -6.65 |
| O=C1CNc2ncnc(N3CCN(Cc4cccc(F)c4)CC3)c2N1 | 17.9 |
| O=C1CNc2ncnc(Nc3cnn(Cc4cccc(F)c4)c3)c2N1 | -16.6 |
| O=C1CNc2ncnc(N3CCN(c4ccccc4F)CC3)c2N1 | 16.1 |
| CCCc1noc(C2CCN(C(=O)C3CCCO3)CC2)n1 (stereo unspecified) | -13.7 |
| CC(C)c1noc(C2CCN(S(=O)(=O)c3cccs3)CC2)n1 | -0.463 |
| CCc1noc(C2CCCCN2C(=O)c2cccs2)n1 (stereo unspecified) | -4.33 |
| CCc1noc(C2CCCCN2C(=O)c2ccc3c(c2)OCO3)n1 (stereo unspecified) | -4.04 |
| CCS(=O)(=O)N1CCCCC1c1nc(C(C)C)no1 (stereo unspecified) | 7.03 |
| Cc1nn(C)c2cnn(CC(=O)NCc3ccc(F)cc3)c12 | 12.4 |
| CC(c1ccncc1)N1Cc2nc(N(C)C)ncc2C1=O (stereo unspecified) | -2.18 |
| CC(C)Cc1noc(C2CCN(C(=O)c3cccs3)CC2)n1 | -0.0683 |

| SMILES | cytotoxicity at 70.5 h [%] |
| --- | --- |
| Cc1nn(C)c2cnn(CC(=O)NCc3ccc4c(c3)OCO4)c12 | -3.63 |
| Cc1nn(C)c(C)c1CN1CCN(CC2(O)CCCN(C)C2)CC1 (stereo unspecified) | -10.5 |
| Cc1nn(C)c2cnn(Cc3ccc(C(=O)NC4CC4)cc3)c12 | -5.97 |
| Cc1nn(C)c2cnn(CC(=O)NCc3ccccc3F)c12 | -8.04 |
| Cc1nn(C)c2cnn(CC(=O)NCc3cccs3)c12 | -8.64 |
| CCN1CCCC(O)(CN(C)Cc2ccccc2F)C1 (stereo unspecified) | -9.61 |
| Cc1cc(C)n(CCC(=O)N2CCC(c3nc(C)no3)CC2)n1 | -12.5 |
| Cc1noc(C2CCCN(C(=O)c3cc(-c4ccccc4)on3)C2)n1 (stereo unspecified) | -20.7 |
| Cc1nn(C)c2cn(C(C)C(=O)NCc3cccc(F)c3)nc12 (stereo unspecified) | -3 |
| Cc1cccc2c1ccn2CC(=O)O | 6.19 |
| CC(O)c1cccc(Nc2nc(NCCO)c3ccccc3n2)c1 (stereo unspecified) | -5.65 |
| Cc1cc2[nH]c(O)nc2cc1NCc1ccc(F)cc1 | -10.2 |
| O=c1c2cnc(N3CCCCC3)nc2ccn1Cc1ccco1 | -7.45 |
| Cc1nc(N2CCCC2)ncc1-c1cc(O)nc(NCC2CCCO2)n1 (stereo unspecified) | -5.1 |
| Cc1nn(C)c2cn(CC(=O)N3CCN(c4ccccc4)CC3)nc12 | 7.34 |
| CCn1nccc1CNC(=O)Cn1cc2c(n1)c(C)nn2C(C)C | -9.07 |
| CCN1CCCC(O)(CNCc2ccccc2F)C1 (stereo unspecified) | 12.4 |
| CC(c1ccccc1)N1Cc2nc(N(C)C)ncc2C1=O (stereo unspecified) | 49 |
